Data reported in patent US20060156431A1, “L-gulose dependent vitamin C synthesis” (Vlaams Interuniversitair Instituut Voor Biotechnologie VZW, priority 2003, published 2006).
pIC50, pKi: −log10 of the molar value. Where two headings read alike, the source gives them in different places.

Assays:
[1] = biological target: T1, GDP-Man 3″,5″-epimerase of A. thaliana (Arabidopsis thaliana, UniProt Q93VR3); assay: GDP-Man 3″,5″-epimerase assay (HPLC); assay type: biochemical; details: for inhibition at 1000 µM: read-out: inhibition of the epimerase activity; for epimerase activity: purified epimerase, exogenously added dinucleotide
T1 construct: The hydroxylapatite fraction of native epimerase (11) was used; endogenous in cells; host or cells: Arabidopsis thaliana ecotype Columbia cell suspensions; enzyme purified, hydroxylapatite fraction
T1 sequence (Q93VR3 1-377): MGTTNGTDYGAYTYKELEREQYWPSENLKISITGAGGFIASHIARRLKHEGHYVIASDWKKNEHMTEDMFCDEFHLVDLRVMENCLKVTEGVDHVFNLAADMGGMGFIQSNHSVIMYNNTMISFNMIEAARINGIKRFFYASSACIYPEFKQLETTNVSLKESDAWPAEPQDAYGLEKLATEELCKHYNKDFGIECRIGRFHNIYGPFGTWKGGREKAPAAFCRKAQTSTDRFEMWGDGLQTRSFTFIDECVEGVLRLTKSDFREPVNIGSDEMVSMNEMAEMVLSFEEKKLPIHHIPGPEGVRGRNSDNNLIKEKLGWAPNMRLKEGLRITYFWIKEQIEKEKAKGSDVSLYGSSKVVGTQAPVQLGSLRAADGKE
Procedure: Characterization of GDP-Man 3″,5″-epimerase of A. thaliana. (A) Steady-state parameters of the native (purified from A. thaliana cell suspensions) and recombinant enzyme. The hydroxylapatite fraction of native epimerase (11) was used. The affinity-purified recombinant enzymes were used. […] Double reciprocal plots are shown and each line represents a fixed GDP concentration: 0 μM, circles; 2 μM, triangles; and 4 μM, squares. V0 is pmol of GDP-L-Gal/L-Gul produced per minute. GDP-Man concentrations were from 1.1 to 5.5 μM. Inset: Secondary plot of slopes versus GDP concentration was used to determine the Ki value for GDP. […] Incubations contained GDP-[^14C]Man (3.4 μM), increasing amounts of GDP-L-Fuc, and an aliquot of the hydroxylapatite fraction of epimerase. Kinetic measurements were performed in duplicates; standard deviation was equal or less than 5%.

Chlorella epimerase = details: read-out: Km for the GDP-Man substrate; cited from earlier work
[2] = system: A. thaliana cell suspensions; assay: In vivo labeling of A. thaliana cell suspensions with D-[U-14C]Man and L-AA determination; assay type: cell-based, Arabidopsis thaliana; details: pre-incubated 20 hours with 2.5 mM compound; for [^14C]-labeled L-AA / [^14C]-labeled L-AA (% of control): labeled two hours with D-[U-14C]Man; for Cold L-AA: acid extracts, HPLC
Procedure: GDP-Man 3″,5″-epimerase assay and L-AA determination. The GDP-Man 3″,5″-epimerase activity and L-AA were measured by the HPLC method as described (13), with the exception that the concentration of methanol in solvent A was 0.5% and the flow rate was 0.8 ml/min.
In vivo labeling of A. thaliana cell suspensions with D-[U-14C]Man. In vivo labeling of A. thaliana cells was performed as described (13). Cell suspensions were pre-adapted to labeling conditions for 20 hours in the presence or absence of exogenous L-AA or its precursors (2.5 mM), followed by two hours labeling with 1 μCi of D-[U-14C]Man. L-AA was extracted with 5% metaphosphoric acid containing 2 mM DTT and 1 mM EDTA.

Compound	Cold L-AA (% of control) [2]	[^14C]-labeled L-AA [2]	[^14C]-labeled L-AA (% of control) [2]	Cold L-AA [2] [nmol/g fw]	other results
O=C1O[C@H]([C@H](O)CO)C(O)=C1O [D-isoascorbic acid]	–	–	–	–	inhibition of the epimerase activity ([1]; 1 mM): no effect
Nc1nc2c(ncn2[C@@H]2O[C@H](COP(=O)(O)OP(=O)(O)O[C@H]3O[C@H](CO)[C@@H](O)[C@H](O)[C@H]3O)[C@@H](O)[C@H]2O)c(=O)[nH]1 [GDP-Glc, guanosine diphospho-D-glucose]	–	–	–	–	pKi [1]: 5.30
C[C@@H]1O[C@H](OP(=O)(O)OP(=O)(O)OC[C@H]2O[C@@H](n3cnc4c(=O)[nH]c(N)nc43)[C@H](O)[C@@H]2O)[C@@H](O)[C@H](O)[C@@H]1O [GDP-L-Fuc, Guanosine diphospho-L-fucose]	–	–	–	–	pIC50 [1]: 4.15; type of inhibition of the epimerase ([1]; even at 1 mM concentration): partial inhibition
Nc1nc2c(ncn2[C@@H]2O[C@H](COP(=O)(O)OP(=O)(O)O[C@H]3O[C@H](CO)[C@@H](O)[C@H](O)[C@@H]3O)[C@@H](O)[C@H]2O)c(=O)[nH]1 [GDP-Man, GDP-D-mannose]	–	–	–	–	Km ([1]; native epimerase, FIG. 1A, read-out: Km for the GDP-Man substrate): 4.4 µM; Km (Chlorella epimerase): 96 µM
Nc1nc2c(ncn2[C@@H]2O[C@H](COP(=O)(O)OP(=O)(O)O)[C@@H](O)[C@H]2O)c(=O)[nH]1 [GDP]	–	–	–	–	pKi [1]: 6.15
O=C1O[C@H]([C@@H](O)CO)C(O)=C1O [L-AA, L-ascorbic acid]	832 % of control	448 10^−3 × cpm/mg fw	33 % of control	1764	inhibition at 1000 µM ([1]; 1 mM): 15%
O=C1O[C@H]([C@@H](O)CO)[C@H](O)[C@@H]1O [L-Gulono-1,4-lactone, L-gulono-1,4-lactone]	165 % of control	722 10^−3 × cpm/mg fw	54 % of control	345	–
O=C[C@@H](O)[C@@H](O)[C@H](O)[C@@H](O)CO [L-Gulose, L-gulose]	190 % of control	872 10^−3 × cpm/mg fw	65 % of control	403	–
O=C1O[C@H]([C@@H](O)CO)[C@@H](O)[C@@H]1O [L-galactono-1,4-lactone]	170 % of control	790 10^−3 × cpm/mg fw	59 % of control	360	inhibition at 1000 µM [1]: 14%
O=C[C@@H](O)[C@H](O)[C@H](O)[C@@H](O)CO [L-galactose]	315 % of control	423 10^−3 × cpm/mg fw	32 % of control	668	inhibition of the epimerase activity ([1]; 1 mM): no effect
NC(=O)c1ccc[n+]([C@@H]2O[C@H](COP(=O)([O-])OP(=O)(O)OC[C@H]3O[C@@H](n4cnc5c(N)ncnc54)[C@H](O)[C@@H]3O)[C@@H](O)[C@H]2O)c1 [NAD+]	–	–	–	–	epimerase activity [1]: 145 % of control
NC(=O)C1=CN([C@@H]2O[C@H](COP(=O)(O)OP(=O)(O)OC[C@H]3O[C@@H](n4cnc5c(N)ncnc54)[C@H](O)[C@@H]3O)[C@@H](O)[C@H]2O)C=CC1 [NADH]	–	–	–	–	epimerase activity [1]: 78 % of control
NC(=O)c1ccc[n+]([C@@H]2O[C@H](COP(=O)([O-])OP(=O)(O)OC[C@H]3O[C@@H](n4cnc5c(N)ncnc54)[C@H](OP(=O)(O)O)[C@@H]3O)[C@@H](O)[C@H]2O)c1 [NADP+]	–	–	–	–	epimerase activity [1]: 110 % of control
NC(=O)C1=CN([C@@H]2O[C@H](COP(=O)(O)OP(=O)(O)OC[C@H]3O[C@@H](n4cnc5c(N)ncnc54)[C@H](OP(=O)(O)O)[C@@H]3O)[C@@H](O)[C@H]2O)C=CC1 [NADPH]	–	–	–	–	epimerase activity [1]: 88 % of control
adenosine diphospho-D-glucose [ADP-D-Glc]	–	–	–	–	effect on the enzyme activity ([1]; adenosine derivative): no effect
